Measurements taken from patent US10633407B2, “14-membered ketolides and methods of their preparation and use” (President and Fellows of Harvard College, priority 2014, dated 2020).
Converted amounts (≈) assume the structure as drawn.

Key:
Assay in all cases: CLSI broth dilution MIC determination
Assay type in all cases: cell-based
E. coli ATCC 25922 = conditions: Escherichia coli, ATCC25922, E. coli ATCC 25922 (MP-4); read-out: MIC
Description: (§1) MIC data was collected for the novel macrolides that this platform has produced against over 21 unique strains of B. subtilis, E. coli, S. aureus, S. pneumoniae, and H. influenzae, including several multidrug-resistant strains, with a special focus on macrolide resistant mechanisms (vide supra). Azithromycin (Azithro) and Solithromycin (Solithro) were included as a control macrolides in many cases. CLSI standard procedures for broth dilution MIC determination were used. […] These genotypes can be constitutive or inducible.

[1] = test system: E. coli MP-532 clinical-cErmB; conditions: Escherichia coli
Description: as §1

E. coli MP-541 clinical = conditions: Escherichia coli, MP541CLINICAL, read-out: MIC
Description: as §1

[2] = test system: E. coli MP-9 ATCC25922:tolC; conditions: Escherichia coli, ATCC25922
Description: as §1

[3] = test system: S. aureus (MRSA) MP-513 ST-228 cErm (Clinical-cErm); conditions: Staphylococcus aureus, read-out: MIC
Description: as §1

S. aureus ATCC 29213 = conditions: Staphylococcus aureus, ATCC29213; S. aureus ATCC 29213 (MP-12); read-out: MIC
Description: as §1

[4] = test system: S. aureus MP-17 ATCCBAA-977 (BAA 977 iErm); conditions: Staphylococcus aureus; S. aureus MP-17, ATCCBAA-977, iErm; read-out: MIC
Description: as §1

S. aureus MRSA: USA300 = conditions: Staphylococcus aureus; S. aureus MRSA: USA300 (MP-549, msr(a)); read-out: MIC
Description: as §1

A. baumannii ATCC 19606 = conditions: Acinetobacter baumannii, ATCC19606; A. baumannii ATCC 19606 (MP-15); read-out: MIC
K. pneumoniae ATCC 10031 = conditions: Klebsiella pneumoniae, ATCC10031, K. pneumoniae ATCC 10031 (MP-14); read-out: MIC
P. aeruginosa ATCC 27853 = conditions: Pseudomonas aeruginosa, ATCC27853; P. aeruginosa ATCC 27853 (MP-3); read-out: MIC
P. aeruginosa MP-7 PAO1 = conditions: Pseudomonas aeruginosa, read-out: MIC
[5] = test system: P. aeruginosa MP-8 PAO1:mex (mex-oprM-deletion); conditions: Pseudomonas aeruginosa, PAO1
[6] = test system: K. pneumoniae MP-548 clinical; conditions: Klebsiella pneumoniae, MP548CLINICAL, read-out: MIC
[7] = test system: K. pneumoniae MP-546 Clinical-MDR; conditions: Klebsiella pneumoniae, read-out: MIC
[8] = test system: A. baumannii MP-577 Clinical-AZT low; conditions: Acinetobacter baumannii, read-out: MIC
[9] = test system: A. baumannii MP-576 Clinical-MDR; conditions: Acinetobacter baumannii, read-out: MIC

SMILES: CC[C@H]1OC(=O)[C@@](C)(F)C(=O)[C@H](C)[C@@H](O[C@@H]2OC(C)CC(N(C)C)C2O)[C@](C)(OC)C[C@@H](C)C(=O)[C@H](C)[C@H]2N(CC#CCn3cc(-c4cccc(F)n4)nn3)C(=O)O[C@]12C (some centres unmarked) [FSM-100627]
- MIC (E. coli ATCC 25922): 16 µg/mL (≈ 18.9 µM)
- MIC [1]: > 64 µg/mL
- MIC (E. coli MP-541 clinical): 8 µg/mL (≈ 9.47 µM)
- MIC [2]: 1 µg/mL (≈ 1.18 µM)
- MIC [3]: 32 µg/mL (≈ 37.9 µM)
- MIC (S. aureus ATCC 29213): 0.06 µg/mL (≈ 0.071 µM)
- MIC [4]: 0.06 µg/mL (≈ 0.071 µM)
- MIC (S. aureus MRSA: USA300): 0.125 µg/mL (≈ 0.148 µM)
- MIC (A. baumannii ATCC 19606): 8 µg/mL (≈ 9.47 µM)
- MIC (K. pneumoniae ATCC 10031): 2 µg/mL (≈ 2.37 µM)
- MIC (P. aeruginosa ATCC 27853): 64 µg/mL (≈ 75.7 µM)
- MIC (P. aeruginosa MP-7 PAO1): 64 µg/mL (≈ 75.7 µM)
- MIC [5]: 4 µg/mL (≈ 4.73 µM)
- MIC [6]: 32 µg/mL (≈ 37.9 µM)
- MIC [7]: 64 µg/mL (≈ 75.7 µM)
- MIC [8]: 32 µg/mL (≈ 37.9 µM)
- MIC [9]: > 64 µg/mL

SMILES: CC[C@H]1OC(=O)[C@@](C)(F)C(=O)[C@H](C)[C@@H](O[C@@H]2OC(C)CC(N(C)C)C2O)[C@](C)(OC)C[C@@H](C)C(=O)[C@H](C)[C@H]2N(CC#CCn3cc(-c4cnc(N)s4)nn3)C(=O)O[C@]12C (some centres unmarked) [FSM-100633]
- MIC (E. coli ATCC 25922): 8 µg/mL (≈ 9.43 µM)
- MIC [1]: > 64 µg/mL
- MIC (E. coli MP-541 clinical): 8 µg/mL (≈ 9.43 µM)
- MIC [2]: 1 µg/mL (≈ 1.18 µM)
- MIC [3]: 64 µg/mL (≈ 75.5 µM)
- MIC (S. aureus ATCC 29213): 0.125 µg/mL (≈ 0.147 µM)
- MIC [4]: 0.125 µg/mL (≈ 0.147 µM)
- MIC (S. aureus MRSA: USA300): 0.125 µg/mL (≈ 0.147 µM)
- MIC (A. baumannii ATCC 19606): 4 µg/mL (≈ 4.72 µM)
- MIC (K. pneumoniae ATCC 10031): 2 µg/mL (≈ 2.36 µM)
- MIC (P. aeruginosa ATCC 27853): 32 µg/mL (≈ 37.7 µM)
- MIC (P. aeruginosa MP-7 PAO1): 32 µg/mL (≈ 37.7 µM)
- MIC [5]: 4 µg/mL (≈ 4.72 µM)
- MIC [6]: 32 µg/mL (≈ 37.7 µM)
- MIC [7]: 64 µg/mL (≈ 75.5 µM)
- MIC [8]: 16 µg/mL (≈ 18.9 µM)
- MIC [9]: > 64 µg/mL

SMILES: CC[C@H]1OC(=O)[C@H](C)C(=O)[C@H](C)[C@@H](O[C@@H]2OC(C)CC(N(C)C)C2O)[C@](C)(OC)C[C@@H](C)C(=O)[C@H](C)[C@H]2N(CC#CCn3cc(-c4cccnn4)nn3)C(=O)O[C@]12C (some centres unmarked) [FSM-130216]
- MIC (E. coli ATCC 25922): 32 µg/mL (≈ 39.5 µM)
- MIC [1]: > 64 µg/mL
- MIC (E. coli MP-541 clinical): 64 µg/mL (≈ 79 µM)
- MIC [2]: 4 µg/mL (≈ 4.94 µM)
- MIC [3]: > 64 µg/mL
- MIC (S. aureus ATCC 29213): 0.25 µg/mL (≈ 0.309 µM)
- MIC [4]: 0.25 µg/mL (≈ 0.309 µM)
- MIC (S. aureus MRSA: USA300): 0.5 µg/mL (≈ 0.617 µM)
- MIC (A. baumannii ATCC 19606): 16 µg/mL (≈ 19.8 µM)
- MIC (K. pneumoniae ATCC 10031): 4 µg/mL (≈ 4.94 µM)
- MIC (P. aeruginosa ATCC 27853): > 64 µg/mL
- MIC (P. aeruginosa MP-7 PAO1): > 64 µg/mL
- MIC [5]: 16 µg/mL (≈ 19.8 µM)
- MIC [6]: > 64 µg/mL
- MIC [7]: > 64 µg/mL
- MIC [8]: 64 µg/mL (≈ 79 µM)
- MIC [9]: > 64 µg/mL

SMILES: CC[C@H]1OC(=O)[C@@](C)(F)C(=O)[C@H](C)[C@@H](O[C@@H]2OC(C)CC(N(C)C)C2O)[C@](C)(OC)C[C@@H](C)C(=O)[C@H](C)[C@H]2N(CC#CCn3cc(-c4cccnn4)nn3)C(=O)O[C@]12C (some centres unmarked) [FSM-130217]
- MIC (E. coli ATCC 25922): 32 µg/mL (≈ 38.6 µM)
- MIC [1]: > 64 µg/mL
- MIC (E. coli MP-541 clinical): 32 µg/mL (≈ 38.6 µM)
- MIC [2]: 4 µg/mL (≈ 4.83 µM)
- MIC [3]: > 64 µg/mL
- MIC (S. aureus ATCC 29213): 0.25 µg/mL (≈ 0.302 µM)
- MIC [4]: 0.25 µg/mL (≈ 0.302 µM)
- MIC (S. aureus MRSA: USA300): 0.25 µg/mL (≈ 0.302 µM)
- MIC (A. baumannii ATCC 19606): 16 µg/mL (≈ 19.3 µM)
- MIC (K. pneumoniae ATCC 10031): 8 µg/mL (≈ 9.66 µM)
- MIC (P. aeruginosa ATCC 27853): > 64 µg/mL
- MIC (P. aeruginosa MP-7 PAO1): > 64 µg/mL
- MIC [5]: 16 µg/mL (≈ 19.3 µM)
- MIC [6]: > 64 µg/mL
- MIC [7]: > 64 µg/mL
- MIC [8]: 32 µg/mL (≈ 38.6 µM)
- MIC [9]: > 64 µg/mL

SMILES: CC[C@H]1OC(=O)[C@H](C)C(=O)[C@H](C)[C@@H](O[C@@H]2OC(C)CC(N(C)C)C2O)[C@](C)(OC)C[C@@H](C)C(=O)[C@H](C)[C@H]2N(NCCCn3nc4ccccc4n3)C(=O)O[C@]12C (some centres unmarked) [FSM-140132]
- MIC (E. coli ATCC 25922): 16 µg/mL (≈ 20.3 µM)
- MIC [1]: > 64 µg/mL
- MIC (E. coli MP-541 clinical): 32 µg/mL (≈ 40.7 µM)
- MIC [2]: 2 µg/mL (≈ 2.54 µM)
- MIC [3]: > 64 µg/mL
- MIC (S. aureus ATCC 29213): 0.25 µg/mL (≈ 0.318 µM)
- MIC [4]: 0.25 µg/mL (≈ 0.318 µM)
- MIC (S. aureus MRSA: USA300): 0.5 µg/mL (≈ 0.635 µM)
- MIC (A. baumannii ATCC 19606): 32 µg/mL (≈ 40.7 µM)
- MIC (K. pneumoniae ATCC 10031): 4 µg/mL (≈ 5.08 µM)
- MIC (P. aeruginosa ATCC 27853): > 64 µg/mL
- MIC (P. aeruginosa MP-7 PAO1): > 64 µg/mL
- MIC [5]: 8 µg/mL (≈ 10.2 µM)
- MIC [6]: 64 µg/mL (≈ 81.3 µM)
- MIC [7]: > 64 µg/mL
- MIC [8]: 32 µg/mL (≈ 40.7 µM)
- MIC [9]: > 64 µg/mL

SMILES: CC[C@H]1OC(=O)[C@H](C)C(=O)[C@H](C)[C@@H](O[C@@H]2OC(C)CC(N(C)C)C2O)[C@](C)(OC)C[C@@H](C)C(=O)[C@H](C)[C@H]2N(NCCCn3nnc4ccccc43)C(=O)O[C@]12C (some centres unmarked) [FSM-140133]
- MIC (E. coli ATCC 25922): 16 µg/mL (≈ 20.3 µM)
- MIC [1]: > 64 µg/mL
- MIC (E. coli MP-541 clinical): 16 µg/mL (≈ 20.3 µM)
- MIC [2]: 4 µg/mL (≈ 5.08 µM)
- MIC [3]: > 64 µg/mL
- MIC (S. aureus ATCC 29213): 0.25 µg/mL (≈ 0.318 µM)
- MIC [4]: 0.25 µg/mL (≈ 0.318 µM)
- MIC (S. aureus MRSA: USA300): 0.5 µg/mL (≈ 0.635 µM)
- MIC (A. baumannii ATCC 19606): 8 µg/mL (≈ 10.2 µM)
- MIC (K. pneumoniae ATCC 10031): 4 µg/mL (≈ 5.08 µM)
- MIC (P. aeruginosa ATCC 27853): 64 µg/mL (≈ 81.3 µM)
- MIC (P. aeruginosa MP-7 PAO1): 64 µg/mL (≈ 81.3 µM)
- MIC [5]: 8 µg/mL (≈ 10.2 µM)
- MIC [6]: 64 µg/mL (≈ 81.3 µM)
- MIC [7]: > 64 µg/mL
- MIC [8]: 64 µg/mL (≈ 81.3 µM)
- MIC [9]: > 64 µg/mL

SMILES: CC[C@H]1OC(=O)[C@H](C)C(=O)[C@H](C)[C@@H](O[C@@H]2OC(C)CC(N(C)C)C2O)[C@](C)(OC)C[C@@H](C)C(=O)[C@H](C)[C@H]2N(NC/C=C/c3ccnc4ccccc34)C(=O)O[C@]12C (some centres unmarked) [FSM-140135]
- MIC (E. coli ATCC 25922): > 64 µg/mL
- MIC [1]: > 64 µg/mL
- MIC (E. coli MP-541 clinical): > 64 µg/mL
- MIC [2]: 16 µg/mL (≈ 20.1 µM)
- MIC [3]: > 64 µg/mL
- MIC (S. aureus ATCC 29213): 2 µg/mL (≈ 2.52 µM)
- MIC [4]: 2 µg/mL (≈ 2.52 µM)
- MIC (S. aureus MRSA: USA300): 2 µg/mL (≈ 2.52 µM)
- MIC (A. baumannii ATCC 19606): > 64 µg/mL
- MIC (K. pneumoniae ATCC 10031): 8 µg/mL (≈ 10.1 µM)
- MIC (P. aeruginosa ATCC 27853): > 64 µg/mL
- MIC (P. aeruginosa MP-7 PAO1): > 64 µg/mL
- MIC [5]: 32 µg/mL (≈ 40.3 µM)
- MIC [6]: > 64 µg/mL
- MIC [7]: > 64 µg/mL
- MIC [8]: > 64 µg/mL
- MIC [9]: > 64 µg/mL
